ChEMBL document CHEMBL1201862, “PubChem BioAssay data set” (2004)
One block for each compound: values may come before it. Activity calls are given as the source filed them.

How the values were obtained:
[1] = cells
[2] = A549 cell cytotoxicity, dose response, cytotoxicity control, plate reader, cherry-pick, antagonist series (AID 743412); format: functional, cell-based
[3] = blockers of bursicon-stimulated LGR2 cAMP reporter – cell-based, HEK293, CRE-luciferase reporter, cherry pick, set 2, dose response (AID 743343); format: functional;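 further: transfected cells were stimulated with diluted bursicon conditioned medium after compound addition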
[4] = toxicity toward HepG2 liver cells – cell-based, plate reader, cherry-pick, antagonist series, cytotoxicity control, dose response (AID 743416); format: functional
[5] = reduction of Shn3 3'UTR-driven luciferase in osteoblasts – cell-based, Clone20 osteoblasts, firefly luciferase, cherry-picked, dose response (AID 624132); format: functional;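 further: firefly luciferase luminescence from reporter carrying the Shn3 3'UTR in osteoblasts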
[6] = target: Paired box protein Pax-8 (Homo sapiens, UniProt Q06710); test: PAX8 transcriptional activity inhibition in RMG-I – RMG-I cells, luciferase, cherry-pick, dose response (AID 687027); format: functional, cell-based;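 further: luciferase reporter driven by Pax8 target thyroperoxidase promoter measured by SteadyGlo luminescence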
[7] = Shn3 3'UTR reporter signal decrease – cell-based, Clone20 osteoblasts, firefly luciferase, cherry-pick, set 2, Schnurri-3 inhibitor project, dose response (AID 720490); format: functional;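 further: actives lower the luminescence signal as inhibitors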
[8] = target: T1, Heat shock factor protein 1 (Mus musculus, UniProt P38532); test: decrease of HSF1-responsive luciferase luminescence – cell-based, NIH3T3, dose retest, confirmation (AID 2382); format: functional;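 further: NIH3T3 fibroblasts with HSF1-driven luciferase reporter stressed by proteasome inhibitor MG132; luminescence from HSF1-driven luciferase expression after 8 hours of MG132 stress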
T1 sequence (P38532 whole entry): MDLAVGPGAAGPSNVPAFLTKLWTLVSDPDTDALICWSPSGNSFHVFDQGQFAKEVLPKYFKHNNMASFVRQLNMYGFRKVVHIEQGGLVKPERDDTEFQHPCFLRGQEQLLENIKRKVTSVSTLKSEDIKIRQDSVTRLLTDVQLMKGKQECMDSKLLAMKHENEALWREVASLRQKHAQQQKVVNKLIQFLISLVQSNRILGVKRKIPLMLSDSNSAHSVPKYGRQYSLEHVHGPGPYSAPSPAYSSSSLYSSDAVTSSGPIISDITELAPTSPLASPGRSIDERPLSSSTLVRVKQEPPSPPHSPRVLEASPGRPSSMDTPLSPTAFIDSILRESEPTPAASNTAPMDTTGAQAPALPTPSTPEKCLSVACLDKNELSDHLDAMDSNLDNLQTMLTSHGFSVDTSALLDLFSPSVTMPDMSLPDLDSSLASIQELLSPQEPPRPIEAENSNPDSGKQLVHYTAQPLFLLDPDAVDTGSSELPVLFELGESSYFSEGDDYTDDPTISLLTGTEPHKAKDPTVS

[9] = Luminescence-based counterscreen assay for KLF5 inhibitors: dose response cell-based high throughput screening assay to identify cytotoxic compounds using the IEC-6 intestinal epithelial cell line. [Related pubchem assays: 1700 (Primary screen.), 1834 (Confirmation screen.), 1858 (Summary AID.), 1905 (Counterscreen.)]; format: functional
[10] = HEK-293T viability loss after treatment – luminescence, T-cell screen hits, cytotoxicity control for TCR NF-kB inhibitor project, dose response (AID 489026); format: functional, cell-based;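 further: cells exposed to compound about 14 hours before the viability readout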
[11] = blockade of melanocortin 4 receptor signaling – cell-based, plate reader, cherry pick, counter-screen for LGR2 antagonist project, dose response (AID 743444); format: functional;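 further: transfected HEK 293 cells stimulated with alpha-MSH peptide; potency of inhibitors of the alpha-MSH evoked signal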
[12] = target: T2, Cytochrome P450 2D6 (Homo sapiens, UniProt P10635);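 further: CYP2D6 member of a cytochrome P450 panel assay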
[13] = target: ORF 73 (Human herpesvirus 8, UniProt O40947); test: KSHV LANA DNA-binding disruption – biochemical, fluorescence polarization, cherry-picked samples, dose response (AID 504725); design: species or system Human gammaherpesvirus 8;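 further: fluorescence polarization of a labeled DNA duplex reporting LANA DNA binding; potency is for inhibitors that block LANA binding to the DNA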
[14] = target: T2, Cytochrome P450 2D6; remark: listed apart in the source
[15] = target: Heat shock 70 kDa protein 1A (Homo sapiens, UniProt P0DMV8); test: inhibition of Hsp70 binding activity – biochemical, fluorescence polarization, SAR follow-up (AID 1072)
[16] = target: T3, Dual specificity protein phosphatase 6 (Rattus norvegicus, UniProt Q64346)
T3 sequence (Q64346 whole entry): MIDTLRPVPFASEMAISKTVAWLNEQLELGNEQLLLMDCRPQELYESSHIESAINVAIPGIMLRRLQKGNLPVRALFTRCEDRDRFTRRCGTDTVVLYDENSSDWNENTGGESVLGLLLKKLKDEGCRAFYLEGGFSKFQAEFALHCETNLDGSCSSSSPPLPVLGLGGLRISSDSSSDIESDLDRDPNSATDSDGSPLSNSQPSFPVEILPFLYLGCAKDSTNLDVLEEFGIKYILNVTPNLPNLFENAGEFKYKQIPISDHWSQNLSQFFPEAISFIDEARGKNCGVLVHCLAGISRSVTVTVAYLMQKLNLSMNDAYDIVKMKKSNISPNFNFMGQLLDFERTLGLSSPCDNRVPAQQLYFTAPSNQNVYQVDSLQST

[17] = target: T3, Dual specificity protein phosphatase 6; format: functional
[18] = target: Glyceraldehyde-3-phosphate dehydrogenase (Homo sapiens, UniProt P04406)
[19] = target: T4, Tyrosine-protein phosphatase non-receptor type 7 (Homo sapiens, UniProt P35236); format: functional
T4 sequence (P35236 whole entry): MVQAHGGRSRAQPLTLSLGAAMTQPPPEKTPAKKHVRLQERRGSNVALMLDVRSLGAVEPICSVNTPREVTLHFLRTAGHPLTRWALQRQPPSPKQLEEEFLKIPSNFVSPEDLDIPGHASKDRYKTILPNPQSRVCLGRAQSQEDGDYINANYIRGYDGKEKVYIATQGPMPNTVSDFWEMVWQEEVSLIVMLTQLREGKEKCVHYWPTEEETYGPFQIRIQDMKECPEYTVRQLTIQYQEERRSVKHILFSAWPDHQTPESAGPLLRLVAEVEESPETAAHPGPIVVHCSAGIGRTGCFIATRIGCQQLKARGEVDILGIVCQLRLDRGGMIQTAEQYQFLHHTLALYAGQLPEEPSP

[20] = target: Heat shock cognate 71 kDa protein (Homo sapiens, UniProt P11142); test: In Vitro Hsc70 Dose Response Fluorescence Polarization Assay. [Related pubchem assays: 1072 ]
[21] = tested on: HEK293; test: cells; format: functional, cell-based; settings: Homo sapiens
[22] = target: Nucleotide-binding oligomerization domain-containing protein 2 (Homo sapiens, UniProt Q9HC29); test: inhibition of NOD2-driven NF-kB reporter – cell-based, luminescence, uHTS, HEK293 (AID 1566); format: functional
[23] = tested on: HEK293; test: cells; format: functional, cell-based; settings: Homo sapiens; remark: listed apart in the source
[24] = tested on: HEK293; test: inhibition of NOD1-driven NF-kB reporter – cell-based, luminescence, uHTS, primary screen (AID 1578); format: functional; settings: Homo sapiens
[25] = tested on: HEK293; test: NOD2 signaling inhibitors in MDP-stimulated cells, cell-based, uHTS, luminescence (AID 2001); format: functional; settings: Homo sapiens
[26] = tested on: HEK293; test: cells; format: functional, cell-based; settings: Homo sapiens; remark: listed apart in the source

T2 sequence (P10635 whole entry): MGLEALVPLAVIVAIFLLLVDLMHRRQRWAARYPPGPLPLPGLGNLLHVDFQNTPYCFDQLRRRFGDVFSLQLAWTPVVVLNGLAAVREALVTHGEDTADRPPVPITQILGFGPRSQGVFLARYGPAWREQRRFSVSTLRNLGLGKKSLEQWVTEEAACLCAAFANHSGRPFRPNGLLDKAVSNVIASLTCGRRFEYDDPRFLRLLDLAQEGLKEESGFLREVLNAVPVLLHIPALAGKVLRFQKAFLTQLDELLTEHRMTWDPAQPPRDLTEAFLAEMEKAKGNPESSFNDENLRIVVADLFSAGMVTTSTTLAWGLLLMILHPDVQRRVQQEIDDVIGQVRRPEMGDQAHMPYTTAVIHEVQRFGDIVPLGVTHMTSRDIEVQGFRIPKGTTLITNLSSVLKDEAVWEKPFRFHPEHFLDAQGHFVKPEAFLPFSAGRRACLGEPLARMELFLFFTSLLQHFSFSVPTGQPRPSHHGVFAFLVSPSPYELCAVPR
Sequence of Paired box protein Pax-8 (Q06710 whole entry): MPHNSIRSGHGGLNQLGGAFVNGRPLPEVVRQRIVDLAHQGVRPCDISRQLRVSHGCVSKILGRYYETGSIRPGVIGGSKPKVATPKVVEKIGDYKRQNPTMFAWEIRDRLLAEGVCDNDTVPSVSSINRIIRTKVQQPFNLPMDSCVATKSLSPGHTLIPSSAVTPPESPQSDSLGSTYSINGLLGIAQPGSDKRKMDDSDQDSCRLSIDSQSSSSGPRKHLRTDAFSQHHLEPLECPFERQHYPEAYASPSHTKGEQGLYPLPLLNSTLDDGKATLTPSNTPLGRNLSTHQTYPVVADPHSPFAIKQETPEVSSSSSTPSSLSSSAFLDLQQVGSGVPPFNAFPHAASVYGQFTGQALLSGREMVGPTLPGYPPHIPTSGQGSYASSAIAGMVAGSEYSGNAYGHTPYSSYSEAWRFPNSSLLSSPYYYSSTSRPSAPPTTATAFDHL
Sequence of Nucleotide-binding oligomerization domain-containing protein 2 (Q9HC29 whole entry, the tested form may be a part): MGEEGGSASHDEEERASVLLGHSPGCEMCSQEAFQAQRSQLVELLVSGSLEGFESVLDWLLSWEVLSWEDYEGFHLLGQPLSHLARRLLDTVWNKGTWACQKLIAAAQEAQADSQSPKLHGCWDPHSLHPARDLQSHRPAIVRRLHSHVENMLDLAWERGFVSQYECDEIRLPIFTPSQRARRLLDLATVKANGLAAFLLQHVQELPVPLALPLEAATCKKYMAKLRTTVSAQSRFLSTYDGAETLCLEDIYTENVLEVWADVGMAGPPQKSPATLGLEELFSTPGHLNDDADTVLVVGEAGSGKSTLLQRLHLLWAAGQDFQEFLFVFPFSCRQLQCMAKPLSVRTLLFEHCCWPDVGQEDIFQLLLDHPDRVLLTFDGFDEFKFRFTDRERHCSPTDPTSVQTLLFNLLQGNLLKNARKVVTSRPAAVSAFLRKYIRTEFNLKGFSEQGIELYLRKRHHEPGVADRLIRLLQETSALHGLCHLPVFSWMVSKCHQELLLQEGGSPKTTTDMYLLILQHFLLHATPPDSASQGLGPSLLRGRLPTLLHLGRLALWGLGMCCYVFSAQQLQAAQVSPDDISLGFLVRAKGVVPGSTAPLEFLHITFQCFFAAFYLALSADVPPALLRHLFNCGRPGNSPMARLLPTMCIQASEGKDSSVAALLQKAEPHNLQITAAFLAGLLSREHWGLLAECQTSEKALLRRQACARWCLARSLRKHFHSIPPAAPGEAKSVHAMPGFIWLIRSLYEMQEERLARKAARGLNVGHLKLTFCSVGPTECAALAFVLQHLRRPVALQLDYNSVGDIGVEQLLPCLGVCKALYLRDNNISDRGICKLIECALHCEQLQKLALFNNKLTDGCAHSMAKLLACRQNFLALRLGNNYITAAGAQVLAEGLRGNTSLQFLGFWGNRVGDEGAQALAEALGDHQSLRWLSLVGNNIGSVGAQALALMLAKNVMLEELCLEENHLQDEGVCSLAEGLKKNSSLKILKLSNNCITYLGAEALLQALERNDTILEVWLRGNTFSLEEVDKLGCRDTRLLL
Sequence of ORF 73 (O40947 whole entry): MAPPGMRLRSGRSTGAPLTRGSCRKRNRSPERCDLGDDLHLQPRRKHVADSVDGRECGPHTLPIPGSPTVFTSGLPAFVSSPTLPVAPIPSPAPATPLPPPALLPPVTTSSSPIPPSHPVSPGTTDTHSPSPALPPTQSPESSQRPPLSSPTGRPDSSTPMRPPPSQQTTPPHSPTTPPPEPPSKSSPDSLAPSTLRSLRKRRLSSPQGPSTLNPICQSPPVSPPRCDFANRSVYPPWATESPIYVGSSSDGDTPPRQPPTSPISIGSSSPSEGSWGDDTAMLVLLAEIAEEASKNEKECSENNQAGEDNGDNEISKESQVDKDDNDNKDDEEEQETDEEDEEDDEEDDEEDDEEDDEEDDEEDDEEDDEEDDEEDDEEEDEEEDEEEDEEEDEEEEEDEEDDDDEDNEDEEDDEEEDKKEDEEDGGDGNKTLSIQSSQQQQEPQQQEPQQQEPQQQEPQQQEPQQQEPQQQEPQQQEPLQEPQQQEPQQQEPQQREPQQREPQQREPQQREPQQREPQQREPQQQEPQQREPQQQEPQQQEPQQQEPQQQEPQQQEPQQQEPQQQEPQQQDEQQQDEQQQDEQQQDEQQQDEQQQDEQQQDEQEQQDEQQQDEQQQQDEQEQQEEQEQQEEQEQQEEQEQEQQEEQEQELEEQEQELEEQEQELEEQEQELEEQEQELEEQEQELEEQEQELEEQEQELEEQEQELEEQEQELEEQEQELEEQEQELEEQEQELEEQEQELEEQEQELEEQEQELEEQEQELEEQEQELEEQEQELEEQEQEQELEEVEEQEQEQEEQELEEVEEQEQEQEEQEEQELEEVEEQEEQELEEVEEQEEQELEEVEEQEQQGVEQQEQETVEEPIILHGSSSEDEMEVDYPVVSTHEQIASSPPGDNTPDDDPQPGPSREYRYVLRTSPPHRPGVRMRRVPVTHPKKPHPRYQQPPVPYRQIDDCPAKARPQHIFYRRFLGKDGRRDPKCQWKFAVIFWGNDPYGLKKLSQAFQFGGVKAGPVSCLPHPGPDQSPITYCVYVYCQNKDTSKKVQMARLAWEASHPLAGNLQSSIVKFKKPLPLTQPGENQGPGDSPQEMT
Sequence of Heat shock 70 kDa protein 1A (P0DMV8 whole entry): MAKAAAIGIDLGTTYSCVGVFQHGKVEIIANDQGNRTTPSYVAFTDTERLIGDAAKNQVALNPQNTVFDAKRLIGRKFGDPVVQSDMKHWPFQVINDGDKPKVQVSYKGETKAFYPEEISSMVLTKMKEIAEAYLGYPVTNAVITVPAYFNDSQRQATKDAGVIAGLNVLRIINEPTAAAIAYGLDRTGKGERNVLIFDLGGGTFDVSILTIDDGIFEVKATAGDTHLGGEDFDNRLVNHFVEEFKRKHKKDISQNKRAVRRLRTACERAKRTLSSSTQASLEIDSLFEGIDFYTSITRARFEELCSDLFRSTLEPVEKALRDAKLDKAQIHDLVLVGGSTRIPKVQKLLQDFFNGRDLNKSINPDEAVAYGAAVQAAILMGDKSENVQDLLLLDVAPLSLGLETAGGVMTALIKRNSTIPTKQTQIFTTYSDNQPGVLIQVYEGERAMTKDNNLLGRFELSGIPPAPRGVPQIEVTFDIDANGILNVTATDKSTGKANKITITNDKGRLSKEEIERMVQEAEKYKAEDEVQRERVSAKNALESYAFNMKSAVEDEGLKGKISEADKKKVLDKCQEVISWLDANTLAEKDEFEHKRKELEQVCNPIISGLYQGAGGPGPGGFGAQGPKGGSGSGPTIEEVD
Sequence of Glyceraldehyde-3-phosphate dehydrogenase (P04406 whole entry): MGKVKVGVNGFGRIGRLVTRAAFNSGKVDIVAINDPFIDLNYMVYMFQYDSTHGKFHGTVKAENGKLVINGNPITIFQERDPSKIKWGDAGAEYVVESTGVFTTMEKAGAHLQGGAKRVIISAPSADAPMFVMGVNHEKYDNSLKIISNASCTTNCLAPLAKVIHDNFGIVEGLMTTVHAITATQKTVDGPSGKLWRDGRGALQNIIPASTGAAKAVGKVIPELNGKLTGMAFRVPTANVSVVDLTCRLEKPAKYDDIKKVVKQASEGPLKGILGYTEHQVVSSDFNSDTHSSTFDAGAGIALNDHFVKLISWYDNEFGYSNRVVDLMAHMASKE
Sequence of Heat shock cognate 71 kDa protein (P11142 whole entry): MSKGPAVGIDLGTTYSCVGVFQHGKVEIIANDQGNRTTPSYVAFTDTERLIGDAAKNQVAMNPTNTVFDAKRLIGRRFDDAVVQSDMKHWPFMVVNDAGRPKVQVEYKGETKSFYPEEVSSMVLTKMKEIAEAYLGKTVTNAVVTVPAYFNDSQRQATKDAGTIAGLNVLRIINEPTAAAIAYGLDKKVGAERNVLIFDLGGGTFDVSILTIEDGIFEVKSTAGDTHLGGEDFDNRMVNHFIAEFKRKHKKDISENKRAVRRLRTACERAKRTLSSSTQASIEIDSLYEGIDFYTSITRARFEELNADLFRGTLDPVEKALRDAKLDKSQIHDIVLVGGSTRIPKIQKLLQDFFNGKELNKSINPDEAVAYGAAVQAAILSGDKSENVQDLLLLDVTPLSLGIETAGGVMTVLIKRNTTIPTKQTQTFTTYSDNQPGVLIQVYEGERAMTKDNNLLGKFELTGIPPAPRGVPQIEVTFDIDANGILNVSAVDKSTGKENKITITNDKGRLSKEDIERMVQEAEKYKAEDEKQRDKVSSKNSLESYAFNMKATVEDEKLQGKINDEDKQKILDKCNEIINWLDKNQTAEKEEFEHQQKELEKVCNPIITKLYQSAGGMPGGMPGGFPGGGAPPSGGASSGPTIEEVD

SMILES: CC1=C2C(=O)C3C(CC=C4CC(O)CCC43C)C2CCC12OC1CC(C)CNC1C2C (stereo unspecified)
IC50 [1]: 4.18 µM (active)

SMILES: CC(C)(C)C(=O)Nc1ccc(NC(=O)c2ccco2)nc1
AC50 [2]: > 52 µM (inactive)
AC50 [3]: 0.243 µM (active)
AC50 [4]: > 52 µM (inactive)
AC50 [5]: 1.17 µM (active)
AC50 [6]: 1.26 µM (active)
AC50 [7]: 2.64 µM (active)
EC50 [8]: < 0.16 µM (active)
IC50 [9]: > 39.8 µM (not active)
IC50 [10]: > 80 µM (inactive)
AC50 [11]: 0.245 µM (active)

SMILES: OCCN(CCO)c1nc(N2CCCCC2)c2nc(N(CCO)CCO)nc(N3CCCCC3)c2n1 [DIPYRIDAMOLE]
AC50 [12]: 10 µM (active)
AC50 [13]: 8.87 µM (active)
AC50 [14]: inactive

IC50 [15]: > 100 µM (not active)
IC50 [16]: 17 µM (active)
IC50 [17]: 15.6 µM (active)
IC50 [18]: > 100 µM (not active)
IC50 [19]: 2.38 µM (active)
IC50 [20]: > 100 µM (not active)
SMILES: O=C(Oc1ccc2c(c1)C1C=CCC1C(C(=O)O)N2)c1ccc(Cl)cc1Cl (stereo unspecified)

SMILES: Cn1c(Sc2ccc(Cl)cc2)c(C=O)c2ccccc21
IC50 [21]: > 20 µM (inactive)
EC50 [22]: 2.17 µM (active)
IC50 [23]: 0.748 µM (active)
EC50 [24]: 1.63 µM (active)
IC50 [25]: 1.15 µM (active)
IC50 [26]: > 20 µM (inactive)
